Laboratory results reported in patent EP1136503A1, “NOVEL PHYSIOLOGICALLY ACTIVE SUBSTANCE, PROCESS FOR PRODUCING THE SAME AND UTILIZATION THEREOF” (Takeda Chemical Industries, Ltd., priority 1998, dated 2001).
Where no end group is shown, it is not given here.

Tests used:
[1] = system: rat SENR; test: GTPγS binding to rat SENR-expression CHO cell membrane fraction; assay type: biochemical; details: peptide in various concentrations, 25°C 1 hour
Procedure: The [^35S] -guanosine 5'-(γ-thio)triphosphate binding promoting activity of bovine SENR ligand (SEQ ID NO:21) on SENR-expression CHO cell membrane fraction was measured by the following method. First, preparation of membrane fraction is described. To 1 x 10^8 of CHO/SENR cells was added 10 ml of a homogenate buffer (10 mM NaHCO3, 5 mM EDTA, 0.5 mM PMSF, 1 µg/ml pepstatin, 4 µg/ml E64, 20 µg/ml leupeptin), which was homogenized by using Polytron (12,000 rpm, 1 min.). The cell homogenate was subjected to centrifugation (1,000 g, 15 mins.) to give the supernatant. Next, the supernatant was subjected to ultracentrifugation (Beckman type 30 rotor, 30,000 rpm, 1 hour). The resulting precipitate was used as a rat SENR-expression CHO cell membrane.
The GTPγS binding activity was measured as follows. The rat SENR-expression CHO cell membrane was diluted with a buffer for membrane dilution (50 mM Tris-hydrochloride buffer (pH 7.4), 5 mM MgCl2, 150 mM NaCl, 1 µM GDP) to prepare a cell membrane fraction solution for assay having a protein concentration of 30 µg/ml. […] After washing twice with 1.5 ml of a buffer for filter washing (50 mM Tris-hydrochloride buffer (pH 7.4), 5 mM MgCl2, 1 mM EDTA, 0.1% BSA), radioactivity of the filter was measured using a liquid scintillation counter.

[2] = system: rat SENR; test: cAMP synthesis suppression in rat SENR-expression CHO cells; assay type: cell-based; details: forskolin
Procedure: A method for the cAMP synthesis suppressing activity of the bovine SENR ligand (SEQ ID NO:21) synthesized in EXAMPLE 14 on rat SENR-expression CHO cells is shown below. The CHO/SENR cells were inoculated on a 24-well plate in 5 × 10^4 cells/well followed by cultivation for 48 hours. The cells were then washed with Hanks' buffer (pH 7.4) containing 0.2 mM 3-isobutyl-methylxanthine, 0.05% BSA and 20 mM HEPES (hereinafter Hanks' buffer (pH 7.4) containing 0.2 mM 3-isobutyl-methylxanthine, 0.05% BSA and 20 mM HEPES is referred to as a reaction buffer). Thereafter, 0.5 ml of the reaction buffer was added to the system, which was kept in the medium for 30 minutes. The reaction buffer was removed and 0.25 ml of a fresh reaction buffer was added to the cells. Then, 0.25 ml of the reaction buffer containing various amounts of bovine SENR ligand and 2 µM forskolin was added to the cells followed by reacting at 37°C for 24 minutes. By adding 100 µl of 20% perchloric acid, the reaction was terminated. The reaction mixture was then allowed to stand on ice for an hour to extract intracellular CAMP. The amount of cAMP in the extract was measured using cAMP EIA kit (Amersham Pharmacia Biotech).

[3] = Blood pressure of rats under anesthesia; assay type: in vivo, Male Wistar rats; details: 10 nmols/kg intravenous, 8 rats, average + standard error
Procedure: The activity of the synthetic SENR ligand polypeptides ① and ② (SEQ ID NO:7 and SEQ ID NO:8) in various concentrations, which were synthesized in EXAMPLES 12 and 13, on blood pressure of rats under anesthesia was measured by the following method. Male Wistar rats of 8 to 9 weeks old (purchased from Nippon Crea Co.) were anesthetized with Nembutal injection (Dai-Nippon Pharmaceutical Co., 50 mg/ml sodium pentobarbital, 50 mg/kg i.p.). A catheter (SP-55) for blood pressure measurement connected with a transducer was inserted into the left carotid artery and a catheter (SP-35) for intravenous injection into the left femoral vein. The synthetic ligand was dissolved in physiological saline containing 0.05% BSA, which was cannulated through the left femoral vein in a dose of 1, 10 or 100 nmol/kg. The blood pressure was continuously recorded by means of a polygraph (manufactured by NEC Sanei Co.). […] The hypotensive action was shown by the average blood pressure reduced by administration of SENR ligand to the average blood pressure prior to administration. […]

[4] = molecular target: rat SENR (sensory epithelium neuropeptide-like receptor) (rat); test: cell-based or functional assay
[5] = molecular target: human SENR (human); test: cell-based or functional assay

## GPPSECFWKYCV (cysteine pairing not given here) [Bovine SENR ligand, Cys 6th and 11th form intramolecular disulfide bond]
[1]
  amount of [^35S]-guanosine 5'-(γ-thio)triphosphate bound to the membrane fraction: dose-dependently increased
[2]; increasing peptide concentration
  amount of intracellular cAMP: decreased dose dependently
[2]; peptide 0.3 nM, 37°C 24 minutes
  amount of intracellular cAMP: obviously reduced
[3]
  Average blood pressure decreased: 35.7 ± 7.0 mmHg

## bovine SENR ligand (peptide)
[4]
  cAMP synthesis suppressing activity (forskolin-stimulated; concentration at which an obvious reduction was seen): 0.3 nM

## human SENR ligand (human urotensin II) (peptide)
[5]
  cAMP synthesis suppressing activity (forskolin-stimulated; concentration at which an obvious reduction was seen): 0.3 nM
